Test results: US20070270392A1, “Use of a Cyclopentenone Prostaglandin for Delaying the Onset and/or Preventing the Continuation of Labour” (Imperial College Innovations Limited, priority 2003, published 2007)

Experiments:
[1] = system: NF-κB; assay: NF-κB-dependent luciferase reporter (κB.BG.Luc) in amnion cells; assay type: cell-based, human; settings: L− and L+ amnion cells, treated 2 h, IL-1β 1 ng/ml 6 h
Procedure: . Values are normalised for b-gal reporter activity.
Placentae were obtained from patients at term either at elective Caesarean section prior to labour (L−) or following spontaneous labour onset and vaginal delivery (L+). Amnion cells were prepared as described in Bennett et al., (1989). Briefly, the amnion was separated from the placenta, washed 3× in PBS, cut into strips, and incubated in 0.51 mM EDTA in PBS for 15 min. The strips were washed in PBS 2× and digested with 2.5 mg/ml dispase in serum-free DMEM for 35 min at 37° C. The amnion was then shaken vigorously in DMEM, 10% FCS to dissociate the cells, the remaining strips discarded, and the cell suspension pelleted at 175 g for 10 min and cultured in DMEM, 10% FCS (Sigma), 1% L-glutamine, 1% penicillin-streptomycin.
pGL3.6 κB.BG.luc was the reporter construct used to assess NF-κB-mediated transcription, while the mutant pGL3.6 κBmut.luc and empty pGL3.BG.luc were used as controls (Schwarzer et al., 1998).
pGL3.6 κB.BG.luc: a NF-κB-dependent reporter construct with 6 copies of the NF-κB binding site. It contains two tandem repeats of the sequence 5′-GGG GAC TTT C CC TGGGGACTTTCCCTGGGGACTTTCCC-3′, which contains three copies of the decameric NF-κB binding site (underlined) upstream of a minimal β-globin promoter driving a luciferase gene. […]

[2] = system: NF-κB; assay: Western immunoblot of NF-κB activation (p65, p50, IκB) in myometrial cells; assay type: cell-based, human; set-up: Accumulation of phosphorylated IκBα: dose or concentration left out as unconfirmed
Procedure: Western immunoblots of nuclear or cytosolic protein extracts from (A) myometrial cells, (B) L− amnion cells, and (C) L+amnion cells treated with 15dPGJ2 or vehicle for 2 h+/−IL-1, stimulation (15 min). Blots probed with antibodies against p65, p50 or IκBα.
Western immunoblot of nuclear or cytosolic protein extracts from myometrial cells treated with PGA1 or vehicle for 2 h followed by IL-1β stimulation (15 min). Blots probed with antibodies against p65 or IκBa.
Analysis of nuclear protein extracts from myometrial cells treated with PGE2 or vehicle for 2 h+/−TNFα or IL-1b stimulation (15 min). (A) EMSA using consensus κB probe. (B) Western immunoblot probing for nuclear p65.
Western immunoblots of cytosolic extracts from myometrial cells (A) treated with 15dPGJ2 for 2 h+/−IL1b for 15 min; probed for IKK, and (B) treated with […] 15dPGJ2, […] MG132 or vehicle for 2 h, +/−IL-1β for 15 min; probed for IκBα.
Myometrial tissue was collected at term from the upper margin of uterine incision at the time of lower segment caesarean section either prior to the onset of labour (L−) or […] (L+). L+ samples were collected by Dr Mark Johnson and Dr S Soorrana at Chelsea & Westminster Hospital. Myometrial tissue was dissected, rinsed in PBS, and digested in serum-free DMEM containing 15 mg/ml collagenase 1A (Sigma), 15 mg/ml collagenase X, and 50 mg/ml bovine serum albumin for 45 min at 37° C. The cell suspension was filtered through a cell strainer, centrifuged at 400 g for 5 min, and the pellet re-suspended and plated out in DMEM, 10% FCS (Helena BioScience), 1% L-glutamine, 1% penicillin-streptomycin. Cells were used between passage numbers 1-4.
Nuclear and cytosolic protein extracts were obtained from cultured amnion cells as described by Schreiber et al (1989). For nuclear/cytosolic fractionation, confluent cell monolayers were scraped and lysed using a buffer containing 10 mM HEPES, 10 mM KCl, 0.1 mM EDTA, 0.1 mM EGTA, 2 mM DTT, 1% (v/v) NP-40 and complete protease inhibitor tablets (CPIs, Roche), diluted to manufacturer's instructions. Cell lysates were incubated on ice for 10 min and NP-40 added to a final concentration of 1% (v/v). Lysates were vortexed for 10 secs and centrifuged for 30 secs at 4° C., 12000 g. The supernatants were retained as the cytosolic protein extracts. The pellets were resuspended in buffer containing 10 mM HEPES, 10 mM KCl, 0.1 mM EDTA, 0.1 mM EGTA, 2 mM DTT, 400 mM NaCl, 1% NP-40 (v/v) and CPIs. Samples were shaken vigorously for 15 min in an ice bath. The nuclear protein extracts were obtained in the supernatant following a 5 min centrifugation at 4° C., 12000 g.
Protein samples (20-70 μg) were mixed with Laemmli sample buffer (1:1) containing β-mercaptoethanol (5%), and boiled for 5 min. Proteins were then separated by SDS-PAGE (12-14% gels) and transferred onto PVDF membrane (Amersham Pharmacia Biotech). The membranes were blocked overnight in 5% non-fat milk prepared in PBS-T buffer, at 4° C. The blots were incubated with the primary antibody in 1% non-fat milk in PBS-T buffer for 1 h, and washed three times (10 min each) in PBS-T with vigorous shaking. The blots were then incubated with HRP-conjugated secondary antibody (diluted 1:2000 in 1% non-fat milk in PBS-T buffer) for 1 h and washed three times (10 min each) in PBS-T. Signal detection was achieved using enhanced chemi-luminescence (ECL plus system, Amersham Pharmacia Biotech) according to manufacturer's instructions.
30-50 μg protein extracts were subjected to SDS-PAGE and Western immuno-blotting. Secondary antibodies were IgG-HRP and ECL Plus detection kit (Amersham Pharmacia Biotech, Amersham Place, Little Chalfont, Bucks, HP7 9NA) was used for visualisation.

SMILES | IL-1-induced NF-κB transcriptional activity [1] | IL-1β-induced IκBα degradation [2] | IL-1β-induced p65 nuclear translocation [2] | IL-1β-induced IκBα and IκBβ degradation [2] | IL-1β-induced p50 phosphorylation [2] | Accumulation of phosphorylated IκBα ([2]; 2 h, IL-1β 15 min) | IκBα phosphorylation ([2]; cytosolic extracts)
CCCCC[C@H](O)/C=C/[C@H]1C=CC(=O)[C@@H]1CCCCCCC(=O)O [PGA1, prostaglandin A1] | inhibited | inhibited | inhibited | – | – | – | –
CCCCCC=CC=C1C(=O)C=C[C@@H]1CC=CCCCC(=O)O [15d-PGJ2, 15-deoxy-Δ^12,14prostaglandin J2] | inhibited | – | inhibited | inhibition | inhibited | not detected | inhibits
